The subject of one data set is EAAT2. As to the kind of experiment: Spinal cord organotypic culture screen for EAAT2 protein expression (slot blot). The format is cell-based, rat. Conditions: for EAAT2 expression: positive controls, after 3 days in culture. An excerpt:
Screening Assay for EAAT2 Protein overexpression. Spinal cord organotypic cultures and astroglial cultures are used to screen for drugs capable of stimulating EAAT2 synthesis and function. Organotypic cultures offer the advantage in that they maintain the normal architecture of neuron-astroglial interactions in vitro and are derived from post natal tissue; thus may better reflect astroglial responses in vivo (rather than embryonic cells). Thus a drug that acts either on an astrocyt—or induces neurons to secrete factors that alert astrocytes—better reflects the “natural” condition of delivering a drug to a whole animal.
Organotypic Spinal Cord. Spinal cord organotypic cultures have been described by us in detail in the past. Rothstein J D et al., N. Engl. J. Med. 1992; 326:1464-1468. Briefly, 300 um sections of rat lumbar spinal cord, from postnatal day 8-10 rat pups, are placed on Millipore Millicell CM semipermeable membranes. Each well contains 5 slices (FIG. 2A). Fifty-100 cultures can be prepared weekly. Each drug (10-100 μM) was added for 3-7 days, along with cell culture medium/serum. Cultures were harvested and 5-50 μg of tissue was applied to slot blot apparatus for detection of EAAT2 by standard Western blotting/chemiluminescence methods described in the past. Kuncl R W et al., Motor neuron diseases. In: Asbury A K et al., editors. Diseases of the Nervous System. 2 ed. Philadelphia: W. B. Saunders, 1992:1179-1208; Rothstein J D et al., Neuron 1994; 13:713-725. All antipeptide antibodies were affinity purified and highly specific for transporter subtypes. By this method, increases greater than 50% of expressed protein can be detected. For each antibody slot blot, the homogenates used are expected to be within the linear range for antibody detection, based on prior standard curves.
Screening Library-Assay Design. The library of compounds for these first studies was the NINDS Custom Collection from Microsource Discovery. The library is composed of 1040 compounds in 96 well plates, that also included positive control for transporter synthesis (dibutyryl cyclic AMP [dbcAMP], GDNF). […] The library is a unique collection of known bioactive compounds that permit the simultaneous evaluation of hundreds of marketed drugs and biochemical standards. Each compound was studied at a final concentration of 10-100 μM. All assays were performed in duplicate. Every blot included control—untreated tissue and a positive control, such as those identified above.
Data Analysis. All blots were analyzed by laser densitometry (BioRad Image Quant) and the duplicate points were averaged. Each blot included a positive control standard (e.g. dbcAMP) and a negative control standard (e.g. serum, DMSO). Data was kept in Excel Spreadsheets, using a numerical/text coding system. All positive drugs (positive defined as at least a 50% increased in protein expression) were re-evaluated.

The conditions of data set [1]: intravenous, pediatric bacterial meningitis, after 3-4 hours; cited from earlier work.
The conditions of data set [2]: intravenous, antibiotic doses, after 0.5 hours; cited from earlier work.
In a further data set the test system is G93A SOD1 mice. As to the kind of experiment: In vivo neuroprotection in the G93A SOD1 mouse. An excerpt: Numerous studies have documented a contributory role for excess glutamate in this mouse model—and role for modulating glutamate receptors or transporters in neuroprotective strategies. Guo H., et al. Hum Mol. Genet. 2003; 12:2519-2532. Modest over expression—by a transgenic approach—can alter disease onset and/or survival.

For the next data set, the system named is GLT1. Description: GLT1 expression in spinal cords of chronically treated G93A mice. The class given is in vivo.
The subject of data set [3] is primary cortical mixed neuronal-glial cell cultures. The format is cell-based. The procedure:
In Vitro Model of Ischemia—Oxygen glucose deprivation (FIG. 7A) The in vitro model of oxygen glucose deprivation (OGD) is a well known and well accepted model of acute neural injury. In our in vitro model of ischemia, one hour of oxygen glucose deprivation (OGD) is lethal to cultured neurons, with toxicity known to involve excess glutamate. However, when these cultures are preconditioned 24 hours prior to the lethal condition with transient OGD (5 minutes), there is a dramatic and robust resistance of neurons to cell death.
Method. Primary cortical mixed neuronal-glial cell cultures are prepared from gestation day 14-16 CD1 mice. The preparation of these cultures from mouse fetal cortex is well-described. Experiments are performed at days in vitro 13-15. In the experimental condition, cultures are subjected to oxygen glucose deprivation (OGD), an in-vitro model of ischemia. Cortical cells are either subjected to control treatment (media, modified Earle's balanced salt solution including glucose and bubbled with 5% CO2 95% O2, is changed alongside treatment groups, but no OGD is performed), or 5 minutes (sublethal) of OGD (using modified Earle's balanced salt solution which is devoid of glucose and bubbled with 10% H2, 85% N2, and […]). Anaerobic conditions are achieved using an anaerobic chamber at 37° C. OGD is terminated by exchange of media back to oxygenated growing medium. Twenty-four hours following the above, cortical cells are subjected either to no treatment, or one hour of OGD. Neuronal survival is determined by computer-assisted cell counting after staining with the fluorescent vital dyes propidium iodide (as an indicator of neuronal death) and Hoechst 33342 (as an indicator of total number of neurons) and is presented as percent of cell death. Glial nuclei fluoresce at a lower intensity and are gated out. […] Following 1 hour OGD, cells are returned to growing medium without drugs.

Data set [4] deals with large ventral horn motor neurons in organotypic spinal cord cultures. Description: In vitro model of chronic motor neurodegeneration (THA) in organotypic spinal cord cultures. The class given is cell-based, rat. The following applies: THA 100 μM, 4 weeks, drug 0 to 100 μM, FIG. 7B.
Procedure: In vitro model of chronic motor neurodegeneration (FIG. 7B). A model of chronic neurodegeneration was used, based on the blockade of glutamate transport in spinal cord organotypic cultures, with the non specific inhibitor threo-hytdroyxaspartate (THA) or TBOA. Chronic incubation of cultures with THA (or TBOA) leads to chronic increase in extra cellular glutamate and subsequent slow death of motor neurons (over 4 weeks).
To determine if drug induced GLT1 promoter activation, and the subsequent over expression of GLT1 protein could be neuroprotective, we used the organotypic spinal cord paradigm. Organotypic spinal cord cultures were prepared from lumbar spinal cords of 8-day-old rat pups, as described previously. […] No drugs were added for the first 7 days following culture preparation. THA was then added to experimental cultures at a concentration of 100 μM, which produces death of motor neurons within 3 to 4 weeks. […] After 4 weeks, cultures were fixed, and immuostained for neurofilament (SMI-32, Sternberger) to quantify large ventral horn motor neurons (a well established method to follow motor neuron survival in this system).
In data set [5] the test system is cultures prepared from GLT-1 null mice. Description: Chronic motor neurodegeneration model in cultures prepared from GLT-1 null mice. The class given is cell-based. Conditions: not shown.
Setting [6] is: 200 mg/kg ip from approximately 12 weeks of age.
Where [7] appears, read: started at 70 days of age, two weeks of therapy, vs saline.

Turning to `CCC(C)(C)C(=O)C(=O)N1CCC[C@H]1C(=O)OCCCc1cccnc1` [GPI-1046], the EAAT2 expression entry in the data set on EAAT2 was “large increase”.

For the molecule `CO/N=C(\C(=O)N[C@@H]1C(=O)N2C(C(=O)O)=C(CSc3nc(=O)c(=O)[nH]n3C)CS[C@H]12)c1csc(N)n1` [ceftriaxone sodium], the “maximum CSF level in inflamed meninges” value in data set [1] is 1.3 to 44 µg/mL. Besides, in data set [2], the “maximum average plasma level” value was 82 to 257 µg/mL.

One may read the EC50 as the concentration giving half of the maximal effect. Read a low EC50 as greater potency. On to `CO/N=C(\C(=O)N[C@@H]1C(=O)N2C(C(=O)O)=C(CSc3nc(=O)c(=O)[nH]n3C)CS[C@H]12)c1csc(N)n1` [ceftriaxone], for which, in the data set on G93A SOD1 mice (setting [6]), the “age by which strength preservation was lost” value is ≤ 18 weeks, the “persistence of strength effect” value is on record as 4 weeks and the “time after treatment at which strength effect was observed” value is reported as ≤ 7 days. Also, in the data set with G93A SOD1 mice (200 mg/kg ip from approximately 12 weeks of age, FIG. 7C), the “loss of muscle strength (grip strength)” value is “significantly delayed”. The “increase of over all survival” value with G93A SOD1 mice (200 mg/kg ip from approximately 12 weeks of age, FIG. 7D) lay in the range of 7 to 10 days. Also, in the data set with G93A SOD1 mice (same dose started at 42 days of age), the “survival, earlier administration” value was “survival was also increased”. In addition, in the data set with G93A SOD1 mice (setting [7]), the “hypercellular-associated gliosis and inflammation” value is “reduction”; the “motor neuron loss in vivo” value is listed as “significant prevention”. In addition, in the data set with GLT1, the “endogenous GLT1 expression in spinal cords” value was “increase endogenous GLT1 expression significantly”. The “percentage of neuronal cell death” value in data set [3] (1 μM added 48 hours prior to 1 hour OGD, 50% without drug) is 20%. Moreover, in data set [3] (acute administration, 1 hour OGD), the “neuroprotection, acute administration” value was “not protective”. Also, the “motor neuron loss / neuroprotection” value in data set [4] is listed as “prevented motor neurons loss in a dose dependent manner”. Besides, the “neuroprotection in GLT-1 null cultures” value in data set [5] is reported as “cannot be seen”. The “increase of GLT1 protein and function” value in the data set with EAAT2 (concentration used in the THA neuroprotection study) is given as “at least 3 fold”. The EC50 with EAAT2 (follow-up dose response analysis, FIG. 2F) was found to be 3.5 µM.

Turning to `CO/N=C(\C(=O)N[C@@H]1C(=O)N2C(C(=O)O)=C(COC(N)=O)CS[C@H]12)c1ccco1` [cefuroxime], in data set [3] (compared with ceftriaxone, 1 hour OGD), the “neuroprotection, pretreatment” value is listed as “Comparable neuroprotection”.

For the molecule `CCCC(=O)Nc1ncnc2c1ncn2[C@@H]1O[C@@H]2COP(=O)(O)O[C@H]2[C@H]1OC(=O)CCC` [dbcAMP, dibutyryl cyclic AMP], the EAAT2 expression entry in the data set with EAAT2 is listed as “large increase”.

Take `CN[C@H](CC(C)C)C(=O)N[C@H]1C(=O)N[C@@H](CC(N)=O)C(=O)N[C@H]2C(=O)N[C@H]3C(=O)N[C@H](C(=O)N[C@H](C(=O)O)c4cc(O)cc(O)c4-c4cc3ccc4O)[C@H](O)c3ccc(c(Cl)c3)Oc3cc2cc(c3O[C@@H]2O[C@H](CO)[C@@H](O)[C@H](O)[C@H]2O[C@H]2C[C@](C)(N)[C@H](O)[C@H](C)O2)Oc2ccc(cc2Cl)[C@H]1O` [vancomycin]: the GLT1 levels entry with EAAT2 is reported as “did not alter”.

Take penicillin: the “active in increasing EAAT2 in the first screen” value in the data set with EAAT2 (first screen, 10-100 μM) is listed as “active”.

B1: GDNF: positive control for transporter synthesis (protein, UniProt P39905 78-211, looked up)
Glial cell line-derived …: SPDKQMAVLPRRERNRQAAAANPENSRGKGRRGQRGKNRGCVLTAIHLNVTDLGLGYETKEELIFRYCSGSCDAAETTYDKILKNLSRNRRLVSDKVGQACCRPIAFDDDLSFLDDNLVYHILRKHSAKRCGCI
As to B1, the EAAT2 expression result in the data set on EAAT2 is recorded as “large increase”.

The values are drawn from patent US20070238717A1, “Neuroprotection with Beta-Lactam Compounds” (Johns Hopkins University, priority 2003, published 2007).
